# Test results: patent publication US9382226B2, “Aldosterone synthase inhibitors” (Merck Sharp & Dohme Corp., priority 2010, dated 2016)
# What was measured:
# human CYP11B1 = molecular target: T1, human CYP11B1 (Homo sapiens, UniProt P15538); assay: V79-Human-CYP11B1 cell assay (cortisol formation, HTRF); type: cell-based; details: V79 cells stably expressing human CYP11B1; substrate 250 nM 11-deoxycortisol; 3 hours
# T1 construct: expressed in transfected cells; host or cells: V79 cells (clone V79-hCYP11B1-8C7)
# T1 sequence (P15538 25-503): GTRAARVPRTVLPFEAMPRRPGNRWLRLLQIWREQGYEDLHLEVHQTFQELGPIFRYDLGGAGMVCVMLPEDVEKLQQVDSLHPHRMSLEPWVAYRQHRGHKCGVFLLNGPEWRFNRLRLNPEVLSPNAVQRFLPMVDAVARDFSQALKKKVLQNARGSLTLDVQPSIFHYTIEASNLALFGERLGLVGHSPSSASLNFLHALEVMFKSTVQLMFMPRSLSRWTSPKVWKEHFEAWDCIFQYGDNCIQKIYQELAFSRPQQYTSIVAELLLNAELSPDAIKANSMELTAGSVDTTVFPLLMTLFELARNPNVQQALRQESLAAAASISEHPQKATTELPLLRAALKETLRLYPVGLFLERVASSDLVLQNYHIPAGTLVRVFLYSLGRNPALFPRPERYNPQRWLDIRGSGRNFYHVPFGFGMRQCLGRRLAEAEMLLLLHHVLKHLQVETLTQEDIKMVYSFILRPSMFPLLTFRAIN
# Description: Methods for V79-Human-CYP11B2 and V79-Human-CYP11B1 Assays: V79 cell lines stably expressing the either the human CYP11B2 or the human CYP11B1 enzyme were generated using a standard transfection protocol. V79 cells were transfected with plasmids pTriEx3-Hygro-hCyp11B2 or pTriEx3-Hygro-hCyp11B1 using Lipofectamine2000 reagent. V79 cells that stably express the human CYP11B2 or human CYP11B1 enzyme were selected for and maintained in DMEM supplemented with 10% FBS and 400 μg/mL hygromycin for ˜2 weeks. Single cell clones were generated by […] in DMEM supplemented with 10% FBS and 400 μg/mL hygromycin until single colonies were obtained. […] For testing of inhibitors, cells were harvested at 80% confluency with 0.5% Trypsan-EDTA, washed once in PBS, and reconstituted in DMEM 0.1% BSA media at a cell concentration of 400,000 cells/mL. 25 μl of cells were added to a 384 well tissue culture treated plate and mixed with 0.25 μl of inhibitor or DMSO (1% final DMSO concentration) for 1 hour at 37° C., 5% CO2. […] The reaction was carried out for 3 hours at 37° C., 5% CO2 and was stopped by harvesting the supernatants. The amount of product in the supernatant (aldosterone for CYP11B2 assay and cortisol for the CYP11B1 assay) was measured using HTRF-based assay kit (Aldosterone HTRF-CisBio#64ALDPEB, Cortisol HTRF-CisBio #63IDC002-CORT). IC50's for the inhibitor were determined by plotting the amount of product formed against the concentration of inhibitor using sigmoidal dose-response curve (variable slope) fit in GraphPad.
# human CYP11B2 = molecular target: T2, human CYP11B2 (Homo sapiens, UniProt P19099); assay: V79-Human-CYP11B2 cell assay (aldosterone formation, HTRF); type: cell-based; details: V79 cells stably expressing human CYP11B2; substrate 125 nM 11-deoxycorticosterone; 3 hours
# T2 construct: expressed in transfected cells; host or cells: V79 cells (clone V79-hCYP11B2-CLE9)
# T2 sequence (P19099 25-503): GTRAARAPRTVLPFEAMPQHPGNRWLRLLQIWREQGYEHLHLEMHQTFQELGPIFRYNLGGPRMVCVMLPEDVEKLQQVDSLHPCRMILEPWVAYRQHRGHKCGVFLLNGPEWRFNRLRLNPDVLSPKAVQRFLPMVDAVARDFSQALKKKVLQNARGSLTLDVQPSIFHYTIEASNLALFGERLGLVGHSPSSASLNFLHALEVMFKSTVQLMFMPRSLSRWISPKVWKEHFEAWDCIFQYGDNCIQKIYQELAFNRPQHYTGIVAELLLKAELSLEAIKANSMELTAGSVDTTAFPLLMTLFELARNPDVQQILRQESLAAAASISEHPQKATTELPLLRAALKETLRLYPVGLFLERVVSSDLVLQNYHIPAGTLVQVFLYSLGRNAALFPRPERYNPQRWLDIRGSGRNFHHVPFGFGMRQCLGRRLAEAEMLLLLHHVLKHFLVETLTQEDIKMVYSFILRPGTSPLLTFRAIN
# Description: Methods for V79-Human-CYP11B2 and V79-Human-CYP11B1 Assays: V79 cell lines stably expressing the either the human CYP11B2 or the human CYP11B1 enzyme were generated using a standard transfection protocol. V79 cells were transfected with plasmids pTriEx3-Hygro-hCyp11B2 or pTriEx3-Hygro-hCyp11B1 using Lipofectamine2000 reagent. V79 cells that stably express the human CYP11B2 or human CYP11B1 enzyme were selected for and maintained in DMEM supplemented with 10% FBS and 400 μg/mL hygromycin for ˜2 weeks. Single cell clones were generated by […] in DMEM supplemented with 10% FBS and 400 μg/mL hygromycin until single colonies were obtained. Clones V79-hCYP11B2-CLE9 and V79-hCYP11B1-8C7, were determined to produce the most aldosterone and cortisol, respectively, and were selected for inhibitor screening. For testing of inhibitors, cells were harvested at 80% confluency with 0.5% Trypsan-EDTA, washed once in PBS, and reconstituted in DMEM 0.1% BSA media at a cell concentration of 400,000 cells/mL. 25 μl of cells were added to a 384 well tissue culture treated plate and mixed with 0.25 μl of inhibitor or DMSO (1% final DMSO concentration) for 1 hour at 37° C., 5% CO2. After pre-incubation with inhibitor, the reaction was initiated by adding 5 μl of substrate (final concentration of 125 nM 11-deoxycorticosterone for the CYP11B2 assay or 250 nM 11-deoxycortisol for the CYP11B1 assay). The reaction was carried out for 3 hours at 37° C., 5% CO2 and was stopped by harvesting the supernatants. The amount of product in the supernatant (aldosterone for CYP11B2 assay and cortisol for the CYP11B1 assay) was measured using HTRF-based assay kit (Aldosterone HTRF-CisBio#64ALDPEB, Cortisol HTRF-CisBio #63IDC002-CORT). IC50's for the inhibitor were determined by plotting the amount of product formed against the concentration of inhibitor using sigmoidal dose-response curve (variable slope) fit in GraphPad.
SMILES,IC50 (human CYP11B1),IC50 (human CYP11B2)
"COc1cncc(-c2nc3ccc(C#N)cc3n2C2CC2)c1 [Example 76, 1-cyclopropyl-2-(5-methoxypyridin-3-yl)-1H-benzimidazole-6-carbonitrile]",1750 nM,0.422 nM
"Cn1c(-c2cccnc2)nc2ccc(Cl)cc21 [Example 233, 6-chloro-1-methyl-2-(pyridin-3-yl)-1H-benzimidazole]",270 nM,1.15 nM
"CC(C)(O)c1cncc(-c2nc3cc(F)c(F)cc3n2C2CC2)c1 [Example 38, 2-[5-(1-Cyclopropyl-5,6-difluoro-1H-benzimidazol-2-yl)pyridin-3-yl]propan-2-ol]",42 nM,0.3 nM
"Cc1cncc(-c2nc3ccc(F)c(F)c3n2C2CC2)c1C [Example 282, 1-cyclopropyl-2-(4,5-dimethylpyridin-3-yl)-6,7-difluoro-1H-benzimidazole]",295 nM,0.417 nM
"Fc1cc2nc(-c3cccnc3)n(C3CC3)c2cc1Cl [Example 132, 6-chloro-1-cyclopropyl-5-fluoro-2-(pyridin-3-yl)-1H-benzimidazole]",10000 nM,0.597 nM
"Fc1cc2nc(-c3cncc4ccccc34)n(C3CC3)c2cc1Cl [Example 131, 4-(6-chloro-1-cyclopropyl-5-fluoro-1H-benzimidazol-2-yl)isoquinoline]",122 nM,0.126 nM
"Fc1ccc2nc(-c3cncc4ccccc34)n(C3CC3)c2c1 [Example 16, 4-(1-cyclopropyl-6-fluoro-1H-benzimidazol-2-yl)isoquinoline]",59.2 nM,0.1 nM
"Fc1cc2nc(-c3cncc4ccccc34)n(C3CC3)c2cc1F [Example 32, 4-(1-cyclopropyl-5,6-difluoro-1H-benzimidazol-2-yl)isoquinoline]",9.6 nM,0.1 nM
"N#Cc1ccc2nc(-c3cccnc3)n(C3CC3)c2c1 [Example 75, 1-cyclopropyl-2-(pyridin-3-yl)-1H-benzo[d]imidazole-6-carbonitrile]",374 nM,1.23 nM
Cn1c(-c2cncc3ccccc23)nc2ccc(F)c(F)c21 [Example 267],206 nM,0.151 nM
"Cc1cncc(-c2nc3cc(F)c(Cl)cc3n2C2CC2)c1 [Example 135, 6-chloro-1-cyclopropyl-5-fluoro-2-(5-methylpyridin-3-yl)-1H-benzimidazole]",602 nM,0.226 nM
"COc1c(C)cncc1-c1nc2cc(F)c(F)cc2n1C1CC1 [Example 226, 1-cyclopropyl-5,6-difluoro-2-(4-methoxy-5-methylpyridin-3-yl)-1H-benzimidazole]",790 nM,1.12 nM
"Fc1cncc(-c2nc3ccc(Br)cc3n2C2CC2)c1 [Example 172, 6-bromo-1-cyclopropyl-2-(5-fluoropyridin-3-yl)-1H-benzimidazole]",946 nM,3.55 nM

# More lines, now with the values ahead:
IC50 (human CYP11B1),IC50 (human CYP11B2),SMILES
162 nM,0.2 nM,"COc1cncc(-c2nc3ccc(Cl)cc3n2C)c1 [Example 232, 6-chloro-2-(5-methoxypyridin-3-yl)-1-methyl-1H-benzimidazole]"
304 nM,3.8 nM,"CCn1c(-c2cncc3ccccc23)nc2cc(F)ccc21 [Example 26, 4-(1-ethyl-5-fluoro-1H-benzimidazol-2-yl)isoquinoline]"
4080 nM,26 nM,"Cn1c(-c2cccnc2)nc2cc(F)ccc21 [Example 4, 5-fluoro-1-methyl-2-(pyridin-3-yl)-1H-benzimidazole]"
3980 nM,28 nM,"Fc1ccc2c(c1)nc(-c1cccnc1)n2C1CC1 [Example 17, 1-cyclopropyl-5-fluoro-2-(pyridin-3-yl)-1H-benzimidazole]"
149 nM,0.585 nM,"Cc1cncc(-c2nc3cc(F)c(F)cc3n2C)c1 [Example 212, 5,6-difluoro-1-methyl-2-(5-methylpyridin-3-yl)-1H-benzimidazole]"
206 nM,0.282 nM,"Fc1ccc2nc(-c3cncc4ccccc34)n(C3CC3)c2c1F [Example 279, 4-(1-cyclopropyl-6,7-difluoro-1H-benzimidazol-2-yl)isoquinoline]"
98 nM,0.316 nM,"Cn1c(-c2cccnc2)nc2ccc(C#N)cc21 [Example 99, 1-methyl-2-(pyridin-3-yl)-1H-benzimidazole-6-carbonitrile]"
490 nM,0.346 nM,"Cn1c(-c2cncc3ccccc23)nc2cc(F)cc(F)c21 [Example 256, 4-(5,7-difluoro-1-methyl-1H-benzimidazol-2-yl)isoquinoline]"
117 nM,0.234 nM,"Cc1cncc(-c2nc3ccc(F)c(F)c3n2C)c1C [Example 268, 2-(4,5-dimethylpyridin-3-yl)-6,7-difluoro-1-methyl-1H-benzimidazole]"
71.5 nM,0.5 nM,"Fc1cncc(-c2nc3cc(F)c(F)cc3n2OCc2ccccc2)c1 [Example 373, 1-(benzyloxy)-5,6-difluoro-2-(5-fluoropyridin-3-yl)-1H-benzimidazole]"
563 nM,2.85 nM,"Cn1c(-c2cnccc2C(F)(F)F)nc2cc(F)c(Cl)cc21 [Example 335, 6-chloro-5-fluoro-1-methyl-2-[4-(trifluoromethyl)pyridin-3-yl]-1H-benzimidazole]"
3.4 nM,0.3 nM,"COC(C)(C)c1cncc(-c2nc3cc(F)c(F)cc3n2C2CC2)c1 [Example 39, 1-cyclopropyl-5,6-difluoro-2-[5-(2-methoxypropan-2-yl)pyridin-3-yl]-1H-benzimidazole]"
161 nM,0.81 nM,"Fc1cncc(-c2nc3cc(F)c(Cl)cc3n2C2CC2)c1 [Example 129, 6-chloro-1-cyclopropyl-5-fluoro-2-(5-fluoropyridin-3-yl)-1H-benzimidazole]"
300 nM,1.35 nM,"Cc1ccncc1-c1nc2ccc(F)c(F)c2n1C1CC1 [Example 284, 1-cyclopropyl-6,7-difluoro-2-(4-methylpyridin-3-yl)-1H-benzimidazole]"
